Data set [1] concerns LNCaP. Nature of the data set: Growth inhibition of human LNCAP cells at 100 uM after 72 hrs by MTT assay relative to control. Format: functional. Particulars: read-out: GI.
Data set [2] concerns the target T1, Androgen receptor (Homo sapiens) (UniProt P10275).
T1 sequence (whole entry): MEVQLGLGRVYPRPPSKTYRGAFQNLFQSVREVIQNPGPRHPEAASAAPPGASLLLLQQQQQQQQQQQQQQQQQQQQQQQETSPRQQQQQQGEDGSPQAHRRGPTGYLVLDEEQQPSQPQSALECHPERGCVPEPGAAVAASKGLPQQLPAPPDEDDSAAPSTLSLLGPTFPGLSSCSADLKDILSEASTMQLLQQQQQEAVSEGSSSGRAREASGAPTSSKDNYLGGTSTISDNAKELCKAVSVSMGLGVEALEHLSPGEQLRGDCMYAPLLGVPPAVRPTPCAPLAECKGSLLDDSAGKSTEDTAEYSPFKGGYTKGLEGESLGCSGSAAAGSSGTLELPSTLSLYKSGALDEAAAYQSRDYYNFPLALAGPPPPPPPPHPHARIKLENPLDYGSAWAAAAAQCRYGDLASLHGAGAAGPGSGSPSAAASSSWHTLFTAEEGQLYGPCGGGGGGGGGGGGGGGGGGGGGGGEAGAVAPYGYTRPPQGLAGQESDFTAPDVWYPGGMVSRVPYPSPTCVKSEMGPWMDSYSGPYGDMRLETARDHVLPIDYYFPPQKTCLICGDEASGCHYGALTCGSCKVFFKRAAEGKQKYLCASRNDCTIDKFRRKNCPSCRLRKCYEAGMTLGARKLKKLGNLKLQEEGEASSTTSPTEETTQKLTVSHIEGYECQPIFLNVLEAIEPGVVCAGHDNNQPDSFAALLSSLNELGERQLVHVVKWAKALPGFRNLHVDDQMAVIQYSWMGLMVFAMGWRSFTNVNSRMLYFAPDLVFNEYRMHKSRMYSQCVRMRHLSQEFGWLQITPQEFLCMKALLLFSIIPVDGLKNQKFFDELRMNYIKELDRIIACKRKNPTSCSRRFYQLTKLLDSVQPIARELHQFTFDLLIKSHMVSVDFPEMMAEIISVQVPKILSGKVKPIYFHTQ
Kind of data set: Inhibition of AR signaling pathway in testosterone-stimulated human LNCAP cells assessed as cell growth inhibition at 100 uM after 6 days by MTT assay relative to control.

The next data set deals with PC-3. Nature of the data set: Growth inhibition of human PC3 cells at 100 uM after 72 hrs by MTT assay relative to control. Format: functional. The note with it: PC-3, 72 h, read-out: GI. For orientation: Formazan colour is commonly taken as a measure of viable cells.
The test system of another data set is DU-145. Kind of data set: Growth inhibition of human DU145 cells at 100 uM after 72 hrs by MTT assay relative to control. The note with it: DU-145, 72 h, read-out: GI. Format: functional.
The test system of data set [3] is LNCaP. Nature of the data set: Cell cycle arrest in testosterone-stimulated human LNCAP cells assessed as G2/M phase accumulation at 8 uM after 5 days (reference value: 13.3%). Format: functional.
Data set [4] can be described thus: Growth inhibition of Balb/c mouse 3T3 clone A31 cells at 250 uM after 72 hrs by MTT assay relative to control. Format: cell-based. The note with it: Balb/c 3T3 clone A31 cells, read-out: GI.
Data set [5] deals with T1, Androgen receptor (Homo sapiens).
Description: Inhibition of AR signaling pathway in testosterone-stimulated human LNCAP cells assessed as cell growth inhibition by flow cytometry
A short description of data set [6]: Selectivity index, ratio of GI50 for Balb/c mouse 3T3 clone A31 cells to GI50 for AR signaling pathway in testosterone-stimulated human LNCAP cells assessed as cell growth inhibition.
The subject of data set [7] is LNCaP. Nature of the data set: Cell cycle arrest in testosterone-stimulated human LNCAP cells assessed as G1 phase accumulation at 8 uM after 3 days (reference value: 73.8%). Format: functional.
For data set [8], the system named is LNCaP. Kind of data set: Cell cycle arrest in testosterone-stimulated human LNCAP cells assessed as G0 phase accumulation at 8 uM after 3 days (reference value: 3.9%). Format: functional.
The test system of data set [9] is LNCaP. Kind of data set: Cell cycle arrest in testosterone-stimulated human LNCAP cells assessed as S phase accumulation at 8 uM after 3 days (reference value: 14.1%). Format: functional.
Data set [10] addresses T1, Androgen receptor (Homo sapiens). The source holds these as a separate data set.
Description: Inhibition of AR signaling pathway in testosterone-stimulated human LNCAP cells assessed as cell growth inhibition after 6 days by MTT assay
Data set [11] concerns LNCaP. Nature of the data set: Cell cycle arrest in testosterone-stimulated human LNCAP cells assessed as G2/M phase accumulation at 8 uM after 3 days (reference value: 8.2%). Format: functional.
Data set [12] relates to LNCaP. Nature of the data set: Cell cycle arrest in testosterone-stimulated human LNCAP cells assessed as G0 phase accumulation at 8 uM after 5 days (reference value: 8.2%). Format: functional.
Data set [13] relates to LNCaP. Nature of the data set: Cell cycle arrest in testosterone-stimulated human LNCAP cells assessed as S phase accumulation at 8 uM after 5 days (reference value: 15.1%). Format: functional.
For data set [14], the system named is LNCaP. Kind of data set: Cell cycle arrest in testosterone-stimulated human LNCAP cells assessed as G1 phase accumulation at 8 uM after 5 days (reference value: 63.4%). Format: functional.
Data set [15] is described as follows: Growth inhibition of Balb/c mouse 3T3 clone A31 cells after 72 hrs by MTT assay. Format: cell-based. Particulars: Balb/c 3T3 clone A31 cells.

Each structure is given as a SMILES string. Calls of active or inactive are those of the source. No cut-off for these calls is given here.

As to `O=C(CSc1ncnc2c1[nH]c1ccccc12)Nc1ccc(F)cc1`, the inhibition of growth at 100 µM in the data set with LNCaP [1], with PC-3 and with DU-145 was not above 50% throughout. For the same molecule, in data set [2], the inhibition entry was “inactive”.
For `N#Cc1ccc(N2CCN(C(=O)c3ccc(=O)[nH]c3)CC2)c(F)c1`, the inhibition of growth at 100 µM in the data set on LNCaP [1], in the data set with PC-3 and with DU-145 was not above 50% each time. The inhibition result in [2] was “inactive”.
On to `N#Cc1ccc(C(=O)N2CCN(c3ccc(F)cc3)CC2)c(F)c1`, for which the inhibition of growth at 100 µM in the data set on LNCaP [1], in the data set on PC-3 and in the data set with DU-145 was not above 50% in each case. In [2], the inhibition result is “inactive”.
Take `N#Cc1ccc(CN2CCN(C(=O)c3ccc(F)c(F)c3)CC2)cc1`: the inhibition of growth at 100 µM in the data set on LNCaP [1], in the data set with PC-3 and in the data set on DU-145 was not above 50% each time. In [2], the inhibition result is “inactive”.
On to `CC(OC(=O)Cc1cc2c(s1)CCC2)C(=O)Nc1ccc(C#N)cc1` (stereo unspecified), for which the inhibition of growth at 100 µM in the data set on LNCaP [1], in the data set on PC-3 and with DU-145 was not above 50% each time. The inhibition entry in data set [2] is “inactive”.
As for `N#Cc1ccc(CN2CCN(C(=O)C3CCCC3)CC2)c(F)c1`, the inhibition of growth at 100 µM in the data set with LNCaP [1], with PC-3 and in the data set with DU-145 was not above 50% each time. Further, the inhibition result in [2] was “inactive”.
In the case of `O=C(CSc1ncnc2c1[nH]c1ccccc12)Nc1cccc(F)c1`, the inhibition of growth at 100 µM with LNCaP [1], in the data set with PC-3 and with DU-145 was not above 50% in each case. Besides, the inhibition result in [2] is “inactive”.
As to `N#Cc1cc(F)c(N2CCN(C(=O)c3ccsc3)CC2)c(F)c1`, the inhibition of growth at 100 µM in the data set on LNCaP [1], in the data set on PC-3 and with DU-145 was not above 50% throughout. Besides, the inhibition result in data set [2] was “inactive”.
Consider `CC(C(=O)Nc1ccc(C#N)cc1)N1CCN(c2ccc(O)cc2)CC1` (stereo unspecified), for which the inhibition of growth at 100 µM in the data set on LNCaP [1], in the data set on PC-3 and in the data set with DU-145 was not above 50% throughout. Also, in [2], the inhibition entry was “inactive”.
Turning to `N#Cc1ccc(CN2CCN(C(=O)Cn3ccc(=O)[nH]c3=O)CC2)cc1`, the inhibition of growth at 100 µM with LNCaP [1], in the data set with PC-3 and with DU-145 was not above 50% throughout. The inhibition result in data set [2] is “inactive”.
`CC1CCCN(C(=O)C2CCN(c3ccc(C#N)cc3F)CC2)C1` (stereo unspecified): the inhibition of growth at 100 µM in the data set on LNCaP [1], in the data set with PC-3 and in the data set with DU-145 was not above 50% throughout. For the same molecule, in data set [2], the inhibition entry was “inactive”.
Turning to `N#Cc1ccc(NC(=O)CSc2nc3ccc([N+](=O)[O-])cc3s2)cc1`, the inhibition of growth at 100 µM in the data set on LNCaP [1], in the data set with PC-3 and with DU-145 was not above 50% in each case. In data set [2], the inhibition entry was “inactive”.
As for `N#Cc1ccc(NC(=O)COC(=O)Cc2ccc(Cl)c(Cl)c2)cc1`, the inhibition of growth at 100 µM in the data set on LNCaP [1], in the data set on PC-3 and in the data set with DU-145 was not above 50% each time. The inhibition entry in data set [2] is “inactive”.
With `Cc1cc(NC(=O)N2CCN(c3ccc(C#N)cc3F)CC2)on1`, the inhibition of growth at 100 µM in the data set with LNCaP [1], with PC-3 and with DU-145 was not above 50% throughout. The inhibition result in data set [2] is “inactive”.
In the case of `Cc1ccc2[nH]c3c(SCC(=O)Nc4cccc(C#N)c4)ncnc3c2c1`, the Activity with LNCaP [3] was 9.3%; in the data set on LNCaP [7], 64.6%; in the data set with LNCaP [8], 1.9%; with LNCaP [9] it was 18.4%; in the data set on LNCaP [11] it was 15.1%; with LNCaP [12], 6.3%. In addition, the Activity with LNCaP [13] is on record as 15.7%; in the data set on LNCaP [14], 68.7%. Moreover, the inhibition of growth at 100 µM in the data set with LNCaP [1], with PC-3 and in the data set on DU-145 was not above 50% throughout. For the same molecule, in data set [4], the inhibition at 72 h, 250 µM amounted to 20%. The GI50 (commonly the concentration at which growth is held to half of that of the control) in data set [5] turned out to be 22.6 µM; in data set [10] it was 22.4 µM. In addition, the RatioGI50 in [6] is listed as more than 11. The inhibition entry in data set [2] is “Active”.
Take `N#Cc1ccc(NC(=O)COC(=O)Cc2cccs2)cc1Cl`: the inhibition of growth at 100 µM with LNCaP [1], in the data set with PC-3 and in the data set with DU-145 was not above 50% throughout. In data set [2], the inhibition result is “Active”.
As for `N#Cc1ccc(NC(=O)COC(=O)Cc2ccc(F)cc2)cc1Cl`, the inhibition of growth at 100 µM in the data set on LNCaP [1], with PC-3 and in the data set with DU-145 was not above 50% each time. The inhibition result in data set [2] is “inactive”.
For `CNC(=O)c1ccc(N2C(=S)N(c3ccc(C#N)c(C(F)(F)F)c3)C(=O)C2(C)C)cc1F` [ENZALUTAMIDE], the GI50 at 72 h in data set [15] was 27.5 µM.

For the origin of these results see ChEMBL document CHEMBL4041540, “In silico selection and cell-based characterization of selective and bioactive compounds for androgen-dependent prostate cancer cell” (Bioorg Med Chem Lett, 2017).
